pIC50: −log10 of the molar value.
Legend:
[1] = system: carrageenin-induced paw edema; assay: Effect on carrageenin-induced paw edema; type: in vivo, male Wistar rats; details: Rattus norvegicus, 3 hours after carrageenin, read-out: Suppression rate for paw swelling, carrageenin-induced edema; for inhibition in vivo at 100 mg/kg: p.o.; for inhibition in vivo at 50 mg/kg: po, 50 mg/kg P.O.
Protocol: a) Effect on carrageenin-induced paw edema
(§1) Male Wistar rats weighing 150 to 160 g (n=3-5) were used in the experiment. After the right hind paw volume was measured with the plethysmograph (TK-101; Unicom Co., Ltd.), the test compound (25, 50 or 100 mg/kg) was orally administered. After one hour, 0.1 ml of 1% carrageenin (λ-carrageenin; PICNIN-A®, Zushi Kagaku Co., Ltd.) was subcutaneously injected into the right hind paw footpad. Three hours after the injection of carrageenin, the right hind paw volume was measured and the swelling rate was determined by the following equation 1. [formula] Vt: the right hind paw volume measured 3 hours after the injection of carrageenin
(§2) Vo: the right hind paw volume measured prior to the injection of carrageenin
(§3) The suppression rate was calculated by the following equation 2. [formula] Swt: the swelling rate of the group administered with the test compound Swc: the swelling rate of the control group administered with physiological saline solution

[2] = system: passive Schultz-Dale reaction; assay: Effect on passive Schultz-Dale reaction (broncho-dilative activity), sensitized tracheal strips contracted by antigen; set-up: species or system male Hartley guinea pigs; details: guinea pig tracheal zig-zag strips, 37° C., antigen egg white albumin 1 μg/ml; read-out: Passive Schultz-Dale reaction IC50 (concentration of 50% relaxation rate)
Protocol: d) Effect on passive Schultz-Dale reaction (broncho-dilative activity)
Male Hartley guinea pigs weighing 350 to 500 g were passively sensitized by intraperitoneal injection of rabbit anti-OA serum prepared in advance by the method of Koda et al. [Folia Pharmacol., Japon 66, 237, (1970)]. After 24 hours, the guinea pigs were stunned and exsanguinated, and then tracheae were removed. The zig-zag strips of the tracheae were prepared by the method of Emmerson and Mackay [J. Pharm. Pharmacol., 31, 798, (1979)]. The strips were suspended in Krebs-Henseleit solution at 37° C. under aeration of a mixed gas of 95% oxygen and 5% carbon dioxide, and equilibrated for one hour. Then, antigen (egg white albumin) was introduced in the solution (final concentration; 1 μg/ml), and the contraction was measured by isotonictransducer (TD-112s, made by Nihon Kohden K.K., Japan) and recorded on a recorder (Type 3066, made by Yokogawa-Hokushin Denki, K.K. Japan). After the contraction curves reached a plateau, the test compounds were successively added in order to get cumulative concentration-relaxation curves. The concentration of 50% relaxation rate (IC50) was calculated from the regression line, which was obtained from the cumulative concentration-relaxation curves.

[3] = system: platelet activating factor (PAF)-induced mortality; assay: Inhibition effect on platelet activating factor (PAF)-induced mortality; type: in vivo, male dd mice; details: Mus musculus, po, PAF 40 μg/kg i.v., 3 h, read-out: Survival rate of test compound-administered group; for responders at 100 mg/kg: n = 10, control group survival 0-20%; for responders at 50 mg/kg: 50 mg/kg p.o., n = 10, control group survival 0%
Protocol: e) Inhibition effect on platelet activating factor (PAF)-induced mortality
The experiment was carried out by a minor modification of a known method [Br. J. Pharmacol., 79, 595 (1983)]. Groups each consisting of 10 male dd mice (weighing 28 to 32 g) were used, and 50 or 100 mg/kg of the test compound or a saline (control) was orally administered. One hour after the administration of test compound, 40 μg/kg of PAF (manufactured by Avanti Polar Lipids Co., Ltd.) was intravenously administered. Three hours after PAF injection, the mortality of the animals was observed.

ddY strain male mice = assay: Acute toxicity (Minimum Lethal Dose); type: in vivo
Protocol: The test compound was orally and intraperitoneally administered to ddY strain male mice weighing 20 to 25 g. MLD (Minimum Lethal Dose) was determined by observing the mortality for […] after the administration.

[4] = system: zymosan-induced paw edema; assay: Effect on zymosan-induced paw edema; type: in vivo, male Wistar rats; details: Rattus norvegicus, po, read-out: Suppression rate for paw swelling, zymosan-induced edema; for inhibition in vivo at 25 mg/kg: 25 mg/kg P.O.
Protocol: as §1, §2, §3
b) Effect on zymosan-induced paw edema
The experiment was carried out in the same manner as in the carrageenin-induced paw edema test except that 1% zymosan (Zymosan A®; Sigma Chemical Co.) was used in place of 1% carrageenin and the right hind paw volume was measured […] the injection of the edema-inducing substance instead of 3 hours. The swelling rate and the suppression rate were calculated by equation 1 and equation 2, respectively.

SMILES: CC(c1ccccc1)n1cnc2c3cccnc3n(-c3ccccc3)c(=O)c21 (stereo not drawn) [Compound 16, 3-(α-Methyl)benzyl-5-phenyl-3H-imidazo[4,5-c][1,8]naphthyridin-4(5H)-one]
- inhibition in vivo at 100 mg/kg [1]: 3.5%
- pIC50 [2]: < 5.00
- responders at 100 mg/kg [3]: 0%
- MLD (Minimum Lethal Dose) i.p. (ddY strain male mice): > 100 mg/kg
- MLD (Minimum Lethal Dose) p.o. (ddY strain male mice): > 300 mg/kg

SMILES: O=C(O)Cn1cnc2c3cccnc3n(-c3ccccc3)c(=O)c21 [Compound 17, 3-Carboxymethyl-5-phenyl-3H-imidazo[4,5-c][1,8]naphthyridin-4(5H)-one]
- inhibition in vivo at 100 mg/kg [1]: 10.8%
- pIC50 [2]: < 5.00
- responders at 100 mg/kg [3]: 30%
- MLD (Minimum Lethal Dose) i.p. (ddY strain male mice): > 100 mg/kg
- MLD (Minimum Lethal Dose) p.o. (ddY strain male mice): > 300 mg/kg

SMILES: Cc1nc2c([nH]1)c(=O)n(-c1ccccc1)c1ncccc21 [Compound 18, 2-Methyl-5-phenyl-3H-imidazo[4,5-c][1,8]naphthyridin-4(5H)-one]
- inhibition in vivo at 100 mg/kg [1]: 23.7%
- inhibition in vivo at 25 mg/kg [4]: 26.7%
- pIC50 [2]: < 5.00
- responders at 100 mg/kg [3]: 90%

SMILES: O=c1c2[nH]c(O)nc2c2cccnc2n1-c1ccccc1 [Compound 21, 2-Hydroxy-5-phenyl-3H-imidazo[4,5-c][1,8]naphthyridin-4(5H)-one]
- inhibition in vivo at 100 mg/kg [1]: 2.3%
- pIC50 [2]: 5.70
- responders at 100 mg/kg [3]: 30%
- MLD (Minimum Lethal Dose) i.p. (ddY strain male mice): > 100 mg/kg
- MLD (Minimum Lethal Dose) p.o. (ddY strain male mice): > 300 mg/kg

SMILES: COc1ccc(-n2c(=O)c3[nH]cnc3c3cccnc32)cc1 [Compound 22, 5-(4-Methoxy)phenyl-3H-imidazo[4,5-c][1,8]naphthyridin-4(5H)-one]
- inhibition in vivo at 100 mg/kg [1]: 1.9%
- inhibition in vivo at 100 mg/kg [4]: 0%
- pIC50 [2]: < 5.00
- responders at 100 mg/kg [3]: 30%

SMILES: COc1cccc(-n2c(=O)c3[nH]cnc3c3cccnc32)c1 [Compound 23, 5-(3-Methoxy)phenyl-3H-imidazo[4,5-c][1,8]naphthyridin-4(5H)-one]
- inhibition in vivo at 100 mg/kg [1]: 0%
- inhibition in vivo at 25 mg/kg [4]: 18.1%
- pIC50 [2]: < 5.00
- responders at 100 mg/kg [3]: 10%

SMILES: Cc1ccc(-n2c(=O)c3[nH]cnc3c3cccnc32)cc1 [Compound 24, 5-(4-Methyl)phenyl-3H-imidazo[4,5-c][1,8]naphthyridin-4(5H)-one]
- inhibition in vivo at 50 mg/kg [1]: 0.3%
- pIC50 [2]: < 5.00
- responders at 100 mg/kg [3]: 40%

SMILES: Cc1cccc(-n2c(=O)c3[nH]cnc3c3cccnc32)c1 [Compound 25, 5-(3-Methyl)phenyl-3H-imidazo[4,5-c][1,8]naphthyridin-4(5H)-one]
- inhibition in vivo at 100 mg/kg [1]: 13.8%
- pIC50 [2]: < 5.00
- responders at 100 mg/kg [3]: 60%

SMILES: O=c1c2[nH]cnc2c2cccnc2n1-c1cccc(Cl)c1 [Compound 26, 5-(3-Chloro)phenyl-3H-imidazo[4,5-c][1,8]naphthyridin-4(5H)-one]
- inhibition in vivo at 100 mg/kg [1]: 15.2%
- pIC50 [2]: < 5.00
- responders at 100 mg/kg [3]: 90%

SMILES: CCCCn1c(=O)c2[nH]cnc2c2cccnc21 [Compound 27, 5-n-Butyl-3H-imidazo[4,5-c][1,8]naphthyridin-4(5H)-one]
- inhibition in vivo at 100 mg/kg [1]: 8.6%
- pIC50 [2]: < 5.00
- responders at 100 mg/kg [3]: 60%

SMILES: CCCCn1c(=O)c2c(ncn2C)c2cccnc21 [Compound 28, 5-n-Butyl-3-methyl-3H-imidazo[4,5-c][1,8]naphthyridin-4(5H)-one]
- inhibition in vivo at 100 mg/kg [1]: 20.6%
- inhibition in vivo at 25 mg/kg [4]: 26.7%
- pIC50 [2]: 5.35
- responders at 100 mg/kg [3]: 70%

SMILES: CCCCCCn1cnc2c3cccnc3n(-c3ccccc3)c(=O)c21 [Compound 30, 3-Hexyl-5-phenyl-3H-imidazo[4,5-c][1,8]naphthyridin-4(5H)-one]
- inhibition in vivo at 100 mg/kg [1]: 48.5%
- inhibition in vivo at 25 mg/kg [4]: 33.5%
- responders at 100 mg/kg [3]: 90%
- MLD (Minimum Lethal Dose) i.p. (ddY strain male mice): > 100 mg/kg
- MLD (Minimum Lethal Dose) p.o. (ddY strain male mice): > 300 mg/kg

SMILES: O=c1c2c(ncn2CC2CCCCC2)c2cccnc2n1-c1ccccc1 [Compound 37, 3-Cyclohexylmethyl-5-phenyl-3H-imidazo[4,5-c][1,8]naphthyridin-4(5H)-one]
- inhibition in vivo at 50 mg/kg [1]: 34.7%
- inhibition in vivo at 25 mg/kg [4]: 49.8%
- pIC50 [2]: 5.21
- responders at 100 mg/kg [3]: 90%

SMILES: O=c1c2c(ncn2Cc2ccc(Cl)cc2)c2cccnc2n1-c1ccccc1 [Compound 40, 3-(4-Chlorophenyl)methyl-5-phenyl-3H-imidazo[4,5-c][1,8]naphthyridin-4(5H)-one]
- inhibition in vivo at 100 mg/kg [1]: 21.3%
- inhibition in vivo at 25 mg/kg [4]: 42.8%
- responders at 100 mg/kg [3]: 40%

SMILES: Cc1cccc(Cn2cnc3c4cccnc4n(-c4ccccc4)c(=O)c32)c1 [Compound 41, 3-(3-Methylphenyl)methyl-5-phenyl-3H-imidazo[4,5-c][1,8]naphthyridin-4(5H)-one]
- inhibition in vivo at 100 mg/kg [1]: 47.7%
- inhibition in vivo at 25 mg/kg [4]: 33.3%
- pIC50 [2]: 5.00
- responders at 50 mg/kg [3]: 80%

SMILES: O=c1c2c(ncn2Cc2ccc([N+](=O)[O-])cc2)c2cccnc2n1-c1ccccc1 [Compound 42, 3-(4-Nitrophenyl)methyl-5-phenyl-3H-imidazo[4,5-c][1,8]naphthyridin-4(5H)-one]
- inhibition in vivo at 100 mg/kg [1]: 35.9%
- inhibition in vivo at 25 mg/kg [4]: 45.6%
- responders at 50 mg/kg [3]: 100%

SMILES: Cc1ccc(Cn2cnc3c4cccnc4n(-c4ccccc4)c(=O)c32)cc1 [Compound 43, 3-(4-Methylphenyl)methyl-5-phenyl-3H-imidazo[4,5-c][1,8]naphthyridin-4(5H)-one]
- inhibition in vivo at 100 mg/kg [1]: 39.2%
- inhibition in vivo at 25 mg/kg [4]: 56.2%
- responders at 100 mg/kg [3]: 70%
- MLD (Minimum Lethal Dose) i.p. (ddY strain male mice): > 100 mg/kg
- MLD (Minimum Lethal Dose) p.o. (ddY strain male mice): > 300 mg/kg

SMILES: COc1ccc(Cn2cnc3c4cccnc4n(-c4ccccc4)c(=O)c32)cc1 [Compound 45, 3-(4-Methoxyphenyl)methyl-5-phenyl-3H-imidazo[4,5-c][1,8]naphthyridin-4(5H)-one]
- inhibition in vivo at 100 mg/kg [1]: 37.8%
- inhibition in vivo at 25 mg/kg [4]: 66.9%
- responders at 100 mg/kg [3]: 40%

SMILES: COc1cccc(Cn2cnc3c4cccnc4n(-c4ccccc4)c(=O)c32)c1 [Compound 46, 3-(3-Methoxyphenyl)methyl-5-phenyl-3H-imidazo[4,5-c][1,8]naphthyridin-4(5H)-one]
- inhibition in vivo at 25 mg/kg [4]: 43.5%
- responders at 100 mg/kg [3]: 10%

SMILES: O=c1c2c(ncn2Cc2cccc([N+](=O)[O-])c2)c2cccnc2n1-c1ccccc1 [Compound 47, 3-(3-Nitrophenyl)methyl-5-phenyl-3H-imidazo[4,5-c][1,8]naphthyridin-4(5H)-one]
- inhibition in vivo at 100 mg/kg [1]: 33.1%
- inhibition in vivo at 25 mg/kg [4]: 35.7%
- responders at 100 mg/kg [3]: 0%
- MLD (Minimum Lethal Dose) i.p. (ddY strain male mice): > 100 mg/kg
- MLD (Minimum Lethal Dose) p.o. (ddY strain male mice): > 300 mg/kg

SMILES: Cc1cccc(-n2c(=O)c3c(ncn3Cc3ccccc3)c3cccnc32)c1 [Compound 58, 5-(3-Methylphenyl)-3-benzyl-3H-imidazo[4,5-c][1,8]naphthyridin-4(5H)-one]
- inhibition in vivo at 50 mg/kg [1]: 36.3%
- inhibition in vivo at 25 mg/kg [4]: 47%
- responders at 100 mg/kg [3]: 100%
- MLD (Minimum Lethal Dose) i.p. (ddY strain male mice): > 100 mg/kg
- MLD (Minimum Lethal Dose) p.o. (ddY strain male mice): > 300 mg/kg

SMILES: O=c1c2c(ncn2Cc2ccccc2)c2cccnc2n1-c1cccc(Cl)c1 [Compound 59, 5-(3-Chlorophenyl)-3-benzyl-3H-imidazo[4,5-c][1,8]naphthyridin-4(5H)-one]
- inhibition in vivo at 50 mg/kg [1]: 36.4%
- inhibition in vivo at 25 mg/kg [4]: 47.9%
- responders at 100 mg/kg [3]: 70%
- MLD (Minimum Lethal Dose) i.p. (ddY strain male mice): > 100 mg/kg
- MLD (Minimum Lethal Dose) p.o. (ddY strain male mice): > 300 mg/kg

Reference: US5468756A, “Imidazonaphthyridine derivatives” (Kyowa Hakko Kogyo Co., Ltd., priority 1990, dated 1995)
